Biological target: endothelin receptors
Test: Radioligand binding assay: [^125 I]ET-1 binding in porcine kidney membrane
Conditions: membranes from inner medulla of porcine kidney; [^125 I]ET-1 16 pM; 60 minutes at 23° C.; read-out: Effect on specific binding of [^125 I]ET-1 in porcine kidney membrane, IC50
Procedure: Radioligand binding assay:
(a) Crude receptor membrane preparation:
Membranes as endothelin receptors were isolated from inner medulla of porcine kidney. The inner medulla of porcine kidney was placed in ice-cold buffer (0.25M sucrose, 5 mM Tris-HCl, 0.1 mM EDTA, pH 7.5). The inner medulla was homogenized in five volumes (w/v) of ice-cold buffer using a Brinkman Polytron PT-10 at a setting of 16,000 rpm for three 10-sec periods. The homogenate was centrifuged at 10,000×g for 20 minutes at 4° C. The pellet was discarded and the supernatant was centrifuged at 100,000×g for 60 minutes at 4° C. […]
To determine [^125 I]ET-1 binding to kidney, membrane suspensions prepared from kidney (10 μg of protein) were incubated by constant shaking for 60 minutes at 23° C. with [^125 I]ET-1 (range, 4-900 pM) in a total volume of 250 μl of buffer 1 that contained 0.1 mg/ml of bovine serum albumin. […] The filter disks were washed three times with 0.2 ml of ice-cold 50 mM Tris-HCl buffer (pH 7.5), and the radioactivity was counted in a gamma counter (Hewlett-Packard) with an efficiency of 71%. […] The Kd was determined by Scatchard analysis. […]

CC(C)C[C@@H](C(=O)N[C@H](Cc1cccc2ccccc12)C(=O)N[C@@H](C(=O)O)C(C)C)N(CCN(C)Cc1cccnc1)C(=O)Cc1ccccc1Cl [Compound A]
IC50: 68 nM
